In the kinase profiling compilation of Christmann-Franck et al. (2016):

Key:
Assay in all cases: KINOMEscan competition binding
Conditions in all cases: compound 10.0 µM
PDGFRA (human) = PDGFRA (human) (UniProt P16234)
FLT4 (human) = FLT4 (human) (UniProt P35916)
CPK1 (P.falciparum) = system: CPK1 (P.falciparum)
CSNK1D (human) = CSNK1D (human) (UniProt P48730)
ULK3 (human) = ULK3 (human) (UniProt Q6PHR2)
[1] = system: KIT (human), P10721 [D816H]
MYLK (human) = MYLK (human) (UniProt Q15746)
CDK3 (human) = CDK3 (human) (UniProt Q00526)
RET (human) = RET (human) (UniProt P07949)
Chain of RET (human) (P07949 whole entry, looked up): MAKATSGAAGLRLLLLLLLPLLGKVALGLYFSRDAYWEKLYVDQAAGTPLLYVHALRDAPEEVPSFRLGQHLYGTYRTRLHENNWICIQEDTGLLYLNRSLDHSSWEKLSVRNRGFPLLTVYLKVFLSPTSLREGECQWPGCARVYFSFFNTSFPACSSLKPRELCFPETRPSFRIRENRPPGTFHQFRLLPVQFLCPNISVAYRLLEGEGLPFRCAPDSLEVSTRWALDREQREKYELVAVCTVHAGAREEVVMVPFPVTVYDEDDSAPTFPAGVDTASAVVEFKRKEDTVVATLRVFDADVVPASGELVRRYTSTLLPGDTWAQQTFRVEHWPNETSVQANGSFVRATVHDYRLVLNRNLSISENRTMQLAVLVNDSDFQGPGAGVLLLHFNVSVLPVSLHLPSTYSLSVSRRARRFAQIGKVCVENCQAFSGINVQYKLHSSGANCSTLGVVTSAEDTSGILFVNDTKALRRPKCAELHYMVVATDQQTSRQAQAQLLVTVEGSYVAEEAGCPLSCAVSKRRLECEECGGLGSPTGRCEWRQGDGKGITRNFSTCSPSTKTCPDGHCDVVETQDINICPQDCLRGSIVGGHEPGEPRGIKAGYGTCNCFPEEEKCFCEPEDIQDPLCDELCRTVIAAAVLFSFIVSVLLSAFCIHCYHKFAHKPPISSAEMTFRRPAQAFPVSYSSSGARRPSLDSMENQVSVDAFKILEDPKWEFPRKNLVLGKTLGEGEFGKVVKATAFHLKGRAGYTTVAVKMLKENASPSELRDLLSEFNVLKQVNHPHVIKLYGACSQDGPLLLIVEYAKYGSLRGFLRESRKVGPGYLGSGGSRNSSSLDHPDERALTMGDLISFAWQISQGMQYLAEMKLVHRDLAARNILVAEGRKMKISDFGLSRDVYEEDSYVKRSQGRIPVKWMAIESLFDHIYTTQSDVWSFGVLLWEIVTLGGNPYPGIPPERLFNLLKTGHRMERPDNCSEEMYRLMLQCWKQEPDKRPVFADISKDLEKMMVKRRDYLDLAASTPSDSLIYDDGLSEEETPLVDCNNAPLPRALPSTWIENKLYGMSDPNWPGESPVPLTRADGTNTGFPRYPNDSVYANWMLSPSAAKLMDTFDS

CDKL1 (human) = CDKL1 (human) (UniProt Q00532)
STK32B (human) = STK32B (human) (UniProt Q9NY57)
ROS1 (human) = ROS1 (human) (UniProt P08922)
GSK3A (human) = GSK3A (human) (UniProt P49840)
LYN (human) = LYN (human) (UniProt P07948)
CIT (human) = CIT (human) (UniProt O14578)
MYLK2 (human) = MYLK2 (human) (UniProt Q9H1R3)
HCK (human) = HCK (human) (UniProt P08631)
CHEK1 (human) = CHEK1 (human) (UniProt O14757)
MAP3K6 (human) = MAP3K6 (human) (UniProt O95382)
LATS2 (human) = LATS2 (human) (UniProt Q9NRM7)
SNRK (human) = SNRK (human) (UniProt Q9NRH2)
EPHB3 (human) = EPHB3 (human) (UniProt P54753)
Chain of EPHB3 (human) (P54753 whole entry, looked up): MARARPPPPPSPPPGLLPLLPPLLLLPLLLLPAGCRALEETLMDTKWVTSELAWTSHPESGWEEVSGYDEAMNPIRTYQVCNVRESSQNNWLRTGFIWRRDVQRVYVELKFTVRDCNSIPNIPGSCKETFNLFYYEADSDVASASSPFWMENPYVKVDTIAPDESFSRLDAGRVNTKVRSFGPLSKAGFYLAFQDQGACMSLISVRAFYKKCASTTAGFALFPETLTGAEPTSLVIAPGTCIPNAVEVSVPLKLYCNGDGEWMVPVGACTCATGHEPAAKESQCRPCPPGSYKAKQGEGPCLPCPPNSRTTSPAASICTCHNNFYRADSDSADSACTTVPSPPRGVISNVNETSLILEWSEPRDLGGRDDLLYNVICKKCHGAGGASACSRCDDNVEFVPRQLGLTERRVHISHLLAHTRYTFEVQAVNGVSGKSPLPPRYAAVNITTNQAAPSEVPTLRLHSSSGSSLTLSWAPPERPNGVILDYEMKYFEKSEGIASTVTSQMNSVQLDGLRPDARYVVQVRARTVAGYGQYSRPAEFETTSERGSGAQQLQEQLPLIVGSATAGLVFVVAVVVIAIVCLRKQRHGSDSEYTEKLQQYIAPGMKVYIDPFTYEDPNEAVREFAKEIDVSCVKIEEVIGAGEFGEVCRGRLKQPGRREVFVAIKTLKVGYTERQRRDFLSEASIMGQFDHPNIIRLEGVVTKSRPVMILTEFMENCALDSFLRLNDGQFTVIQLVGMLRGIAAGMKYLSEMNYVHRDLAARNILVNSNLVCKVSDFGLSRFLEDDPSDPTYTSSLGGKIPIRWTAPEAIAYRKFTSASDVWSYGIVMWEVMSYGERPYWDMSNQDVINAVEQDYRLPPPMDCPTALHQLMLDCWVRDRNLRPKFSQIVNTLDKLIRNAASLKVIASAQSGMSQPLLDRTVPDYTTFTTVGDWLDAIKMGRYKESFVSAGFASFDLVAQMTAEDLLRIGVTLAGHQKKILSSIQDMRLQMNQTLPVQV

SGK3 (human) = SGK3 (human) (UniProt Q96BR1)
PLK3 (human) = PLK3 (human) (UniProt Q9H4B4)
MKNK2 (human) = MKNK2 (human) (UniProt Q9HBH9)
HIPK4 (human) = HIPK4 (human) (UniProt Q8NE63)
[2] = system: MET (human), P08581 [M1250T]
PKMYT1 (human) = PKMYT1 (human) (UniProt Q99640)
PRKCI (human) = PRKCI (human) (UniProt P41743)
CAMK1G (human) = CAMK1G (human) (UniProt Q96NX5)
MET (human) = MET (human) (UniProt P08581)
RPS6KA5 KD2 (human) = RPS6KA5 KD2 (human) (UniProt O75582)
Chain of RPS6KA5 KD2 (human) (O75582 whole entry, looked up): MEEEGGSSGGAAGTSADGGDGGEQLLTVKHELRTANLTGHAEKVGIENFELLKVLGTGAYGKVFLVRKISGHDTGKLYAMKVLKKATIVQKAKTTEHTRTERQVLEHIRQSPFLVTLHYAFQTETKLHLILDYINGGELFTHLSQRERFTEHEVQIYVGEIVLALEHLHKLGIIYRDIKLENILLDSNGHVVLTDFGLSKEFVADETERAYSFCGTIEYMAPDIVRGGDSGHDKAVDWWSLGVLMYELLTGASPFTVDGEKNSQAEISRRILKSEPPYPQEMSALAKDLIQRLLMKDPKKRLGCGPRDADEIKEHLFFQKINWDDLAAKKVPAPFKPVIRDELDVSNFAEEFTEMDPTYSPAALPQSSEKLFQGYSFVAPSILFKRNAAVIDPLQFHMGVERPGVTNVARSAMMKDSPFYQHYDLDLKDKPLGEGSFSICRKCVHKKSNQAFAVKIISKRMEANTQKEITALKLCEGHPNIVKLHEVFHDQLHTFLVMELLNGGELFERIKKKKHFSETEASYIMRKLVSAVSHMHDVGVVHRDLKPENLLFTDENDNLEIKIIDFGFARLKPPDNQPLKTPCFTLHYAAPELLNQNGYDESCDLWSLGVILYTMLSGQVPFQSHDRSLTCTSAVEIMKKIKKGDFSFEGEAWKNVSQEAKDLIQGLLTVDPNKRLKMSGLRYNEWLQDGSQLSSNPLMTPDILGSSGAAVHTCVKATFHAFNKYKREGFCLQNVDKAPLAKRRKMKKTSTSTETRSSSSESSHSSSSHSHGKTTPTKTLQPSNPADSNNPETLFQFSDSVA

PRKG2 (human) = PRKG2 (human) (UniProt Q13237)
LIMK1 (human) = LIMK1 (human) (UniProt P53667)
PKN2 (human) = PKN2 (human) (UniProt Q16513)
MAP3K5 (human) = MAP3K5 (human) (UniProt Q99683)
CAMK2G (human) = CAMK2G (human) (UniProt Q13555)
Chain of CAMK2G (human) (Q13555 whole entry, looked up): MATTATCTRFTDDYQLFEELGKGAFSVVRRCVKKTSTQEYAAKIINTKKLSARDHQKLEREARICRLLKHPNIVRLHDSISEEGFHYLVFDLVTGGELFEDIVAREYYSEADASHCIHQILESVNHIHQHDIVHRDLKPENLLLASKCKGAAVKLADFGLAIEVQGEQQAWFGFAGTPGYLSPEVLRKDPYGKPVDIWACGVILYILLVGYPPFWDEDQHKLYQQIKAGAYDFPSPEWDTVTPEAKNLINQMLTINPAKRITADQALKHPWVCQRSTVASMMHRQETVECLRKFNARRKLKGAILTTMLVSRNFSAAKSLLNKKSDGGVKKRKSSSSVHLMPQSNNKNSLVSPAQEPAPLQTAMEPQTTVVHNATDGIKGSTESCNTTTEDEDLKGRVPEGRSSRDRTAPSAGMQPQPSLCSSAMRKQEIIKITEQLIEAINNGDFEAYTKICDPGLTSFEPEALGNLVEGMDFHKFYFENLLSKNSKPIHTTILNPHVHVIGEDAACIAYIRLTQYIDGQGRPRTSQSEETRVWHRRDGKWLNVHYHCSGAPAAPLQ

IRAK1 (human) = IRAK1 (human) (UniProt P51617)
STK32A (human) = STK32A (human) (UniProt Q8WU08)
PLK1 (human) = PLK1 (human) (UniProt P53350)
Chain of PLK1 (human) (P53350 whole entry, looked up): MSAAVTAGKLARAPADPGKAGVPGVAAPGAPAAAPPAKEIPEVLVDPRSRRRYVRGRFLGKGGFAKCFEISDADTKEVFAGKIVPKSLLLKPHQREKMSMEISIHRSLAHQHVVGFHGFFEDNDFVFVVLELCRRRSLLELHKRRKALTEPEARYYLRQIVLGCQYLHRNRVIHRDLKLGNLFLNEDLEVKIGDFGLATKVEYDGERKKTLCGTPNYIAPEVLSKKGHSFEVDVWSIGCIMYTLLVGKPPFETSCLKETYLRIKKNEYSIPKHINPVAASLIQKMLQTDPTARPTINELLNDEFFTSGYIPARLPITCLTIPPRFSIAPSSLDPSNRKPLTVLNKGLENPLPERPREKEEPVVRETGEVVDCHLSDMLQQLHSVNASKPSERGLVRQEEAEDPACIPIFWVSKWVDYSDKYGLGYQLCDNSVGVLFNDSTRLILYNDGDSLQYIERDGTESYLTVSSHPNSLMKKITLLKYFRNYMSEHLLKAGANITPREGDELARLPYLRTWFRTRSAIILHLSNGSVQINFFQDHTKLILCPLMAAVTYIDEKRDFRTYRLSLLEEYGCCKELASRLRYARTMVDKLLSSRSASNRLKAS

MAPK7 (human) = MAPK7 (human) (UniProt Q13164)

Chain of KIT (human), P10721 [D816H] (P10721 whole entry D816H, looked up): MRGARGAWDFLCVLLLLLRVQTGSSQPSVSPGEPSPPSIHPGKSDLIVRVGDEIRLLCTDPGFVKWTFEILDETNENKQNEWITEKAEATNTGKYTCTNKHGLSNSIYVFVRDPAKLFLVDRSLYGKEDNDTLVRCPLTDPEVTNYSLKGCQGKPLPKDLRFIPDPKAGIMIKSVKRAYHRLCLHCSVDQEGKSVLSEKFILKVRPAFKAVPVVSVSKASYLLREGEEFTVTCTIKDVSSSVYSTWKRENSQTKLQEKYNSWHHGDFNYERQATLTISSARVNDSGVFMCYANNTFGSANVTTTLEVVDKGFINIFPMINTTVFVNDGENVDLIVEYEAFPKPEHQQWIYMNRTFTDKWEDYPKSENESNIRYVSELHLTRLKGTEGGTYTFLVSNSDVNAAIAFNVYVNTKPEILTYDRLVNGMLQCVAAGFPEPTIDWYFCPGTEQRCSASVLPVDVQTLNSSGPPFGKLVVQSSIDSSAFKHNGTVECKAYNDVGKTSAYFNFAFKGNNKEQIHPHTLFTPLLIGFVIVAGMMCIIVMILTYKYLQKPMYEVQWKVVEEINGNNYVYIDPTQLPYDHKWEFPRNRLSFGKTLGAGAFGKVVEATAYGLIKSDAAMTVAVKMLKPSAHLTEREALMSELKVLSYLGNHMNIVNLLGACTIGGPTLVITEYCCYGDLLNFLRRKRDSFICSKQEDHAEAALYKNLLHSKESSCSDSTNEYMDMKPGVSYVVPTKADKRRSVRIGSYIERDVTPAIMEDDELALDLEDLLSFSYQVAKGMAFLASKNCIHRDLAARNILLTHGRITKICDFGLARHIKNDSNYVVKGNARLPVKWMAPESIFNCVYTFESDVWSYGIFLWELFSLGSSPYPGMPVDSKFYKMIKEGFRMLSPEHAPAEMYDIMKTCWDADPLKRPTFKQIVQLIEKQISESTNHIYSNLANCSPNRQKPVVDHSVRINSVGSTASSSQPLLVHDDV

For `N#Cc1cc(-c2ccnc(Nc3ccc(-n4cnc(-c5cccnc5)n4)cc3)n2)cc(N2CCOCC2)c1`, the kinase still bound, per cent of control (PDGFRA (human)) was 1.2%, the kinase still bound, per cent of control (FLT4 (human)) was 84% and the kinase still bound, per cent of control (CPK1 (P.falciparum)) was 48%. The kinase still bound, per cent of control (CSNK1D (human)) was 86%, the kinase still bound, per cent of control (ULK3 (human)) was 6% and the kinase still bound, per cent of control [1] was 50%. It also gave a kinase still bound, per cent of control (MYLK (human)) of 100%, a kinase still bound, per cent of control (CDK3 (human)) of 45% and a kinase still bound, per cent of control (RET (human)) of 100%. The kinase still bound, per cent of control (CDKL1 (human)) was 34%, the kinase still bound, per cent of control (STK32B (human)) was 100% and the kinase still bound, per cent of control (ROS1 (human)) was 17%. For the same compound, the kinase still bound, per cent of control (GSK3A (human)) was 3.5%, the kinase still bound, per cent of control (LYN (human)) was 78% and the kinase still bound, per cent of control (CIT (human)) was 0.9%. It also gave a kinase still bound, per cent of control (MYLK2 (human)) of 56%, a kinase still bound, per cent of control (HCK (human)) of 100% and a kinase still bound, per cent of control (CHEK1 (human)) of 100%. It also gave a kinase still bound, per cent of control (MAP3K6 (human)) of 88%, a kinase still bound, per cent of control (LATS2 (human)) of 62% and a kinase still bound, per cent of control (SNRK (human)) of 90%. It also gave a kinase still bound, per cent of control (EPHB3 (human)) of 88%, a kinase still bound, per cent of control (SGK3 (human)) of 100% and a kinase still bound, per cent of control (PLK3 (human)) of 93%. For the same compound, the kinase still bound, per cent of control (MKNK2 (human)) was 34%, the kinase still bound, per cent of control (HIPK4 (human)) was 13% and the kinase still bound, per cent of control [2] was 23%. The kinase still bound, per cent of control (PKMYT1 (human)) was 65%, the kinase still bound, per cent of control (PRKCI (human)) was 88% and the kinase still bound, per cent of control (CAMK1G (human)) was 48%. It also gave a kinase still bound, per cent of control (MET (human)) of 24%, a kinase still bound, per cent of control (RPS6KA5 KD2 (human)) of 100% and a kinase still bound, per cent of control (PRKG2 (human)) of 74%. It also gave a kinase still bound, per cent of control (LIMK1 (human)) of 62%, a kinase still bound, per cent of control (PKN2 (human)) of 44% and a kinase still bound, per cent of control (MAP3K5 (human)) of 100%. For the same compound, the kinase still bound, per cent of control (CAMK2G (human)) was 32%, the kinase still bound, per cent of control (IRAK1 (human)) was 9.3% and the kinase still bound, per cent of control (STK32A (human)) was 100%. The kinase still bound, per cent of control (PLK1 (human)) was 99% and the kinase still bound, per cent of control (MAPK7 (human)) was 100%.

In the case of `CCN1CCN(Cc2ccc(NC(=O)c3ccc(C)c(/C=C/c4cnc5[nH]ccc5c4OC)c3)cc2C(F)(F)F)CC1`, the kinase still bound, per cent of control (PDGFRA (human)) is reported as 0.15%, the kinase still bound, per cent of control (FLT4 (human)) is reported as 0.2% and the kinase still bound, per cent of control (CPK1 (P.falciparum)) is reported as 0.2%. It also gave a kinase still bound, per cent of control (CSNK1D (human)) of 38%, a kinase still bound, per cent of control (ULK3 (human)) of 1.5% and a kinase still bound, per cent of control [1] of 36%. For the same compound, the kinase still bound, per cent of control (MYLK (human)) was 90%, the kinase still bound, per cent of control (CDK3 (human)) was 100% and the kinase still bound, per cent of control (RET (human)) was 0.1%. For the same compound, the kinase still bound, per cent of control (CDKL1 (human)) was 61%, the kinase still bound, per cent of control (STK32B (human)) was 100% and the kinase still bound, per cent of control (ROS1 (human)) was 100%. The kinase still bound, per cent of control (GSK3A (human)) was 100%, the kinase still bound, per cent of control (LYN (human)) was 0% and the kinase still bound, per cent of control (CIT (human)) was 0%. It also gave a kinase still bound, per cent of control (MYLK2 (human)) of 0.55%, a kinase still bound, per cent of control (HCK (human)) of 0.45% and a kinase still bound, per cent of control (CHEK1 (human)) of 28%. It also gave a kinase still bound, per cent of control (MAP3K6 (human)) of 64%, a kinase still bound, per cent of control (LATS2 (human)) of 79% and a kinase still bound, per cent of control (SNRK (human)) of 95%. For the same compound, the kinase still bound, per cent of control (EPHB3 (human)) was 4.7%, the kinase still bound, per cent of control (SGK3 (human)) was 38% and the kinase still bound, per cent of control (PLK3 (human)) was 83%. It also gave a kinase still bound, per cent of control (MKNK2 (human)) of 2.7%, a kinase still bound, per cent of control (HIPK4 (human)) of 5.5% and a kinase still bound, per cent of control [2] of 26%. The kinase still bound, per cent of control (PKMYT1 (human)) was 71%, the kinase still bound, per cent of control (PRKCI (human)) was 100% and the kinase still bound, per cent of control (CAMK1G (human)) was 100%. For the same compound, the kinase still bound, per cent of control (MET (human)) was 40%, the kinase still bound, per cent of control (RPS6KA5 KD2 (human)) was 100% and the kinase still bound, per cent of control (PRKG2 (human)) was 91%. For the same compound, the kinase still bound, per cent of control (LIMK1 (human)) was 7.7%, the kinase still bound, per cent of control (PKN2 (human)) was 26% and the kinase still bound, per cent of control (MAP3K5 (human)) was 35%. For the same compound, the kinase still bound, per cent of control (CAMK2G (human)) was 100%, the kinase still bound, per cent of control (IRAK1 (human)) was 26% and the kinase still bound, per cent of control (STK32A (human)) was 100%. The kinase still bound, per cent of control (PLK1 (human)) was 100% and the kinase still bound, per cent of control (MAPK7 (human)) was 73%.
